Source: patent publication US20240149298A1, “PREPARATION OF HYDROPHOBIC SURFACES” (Technion Research & Development Foundation Limited, priority 2021, published 2024)

Key:
[1] = Roughness (RMS) of spray-deposited fatty acid layer, dynamic confocal microscope; type: physicochemical; settings: for Roughness [μm] (about 10% RSD): sprayed on stainless steel, room temperature; for Roughness [μm] (N = 3) / Roughness [μm]: spray coating; for Roughness [μm]: N = 5
Experimental: Roughness and coating thickness were measured using a dynamic confocal microscope (Leica DCM3D); data processing was performed using SensoMap Turbo software. The coating thickness was calculated as the difference in height between the lower and upper levels of a confocal profile measured after a scratch implementation on the coating using a 25G needle. Spray coating was performed by spraying a selected organic solution of a selected fatty acid or a selected mixture of fatty acids on a desired surface using commercially available spraying gun. Gun adjustment is required to obtain the optimal coating properties. Exemplary adjustment parameters included distance from the treated surface, which was optimal at around 30 cm, and pulse duration, which was optimal at 1-5 seconds (e.g., 1-2 seconds). Other parameters are described hereinabove. Exemplary solutions were sprayed onto a surface of stainless steel, at room temperature. Roughness (RMS) and wettability measurements were performed as described hereinabove.

[2] = Wetting properties: water contact angle (CA) of fatty acid coatings; type: physicochemical; settings: for Contact angle [°] (about 5% RSD): sprayed on stainless steel, room temperature; for Contact angle [°] (N = 3) / Contact angle [°]: spray coating; for Contact angle [°]: N = 5
Experimental: Wetting properties of the coatings were characterized by CA and CAH measurements, which were performed using an Attension Theta Lite tensiometer and high-purity water or ethylene glycol (99.5%, Merck, Germany) droplets of 7 μL volume. Spray coating was performed by spraying a selected organic solution of a selected fatty acid or a selected mixture of fatty acids on a desired surface using commercially available spraying gun. Gun adjustment is required to obtain the optimal coating properties. Exemplary adjustment parameters included distance from the treated surface, which was optimal at around 30 cm, and pulse duration, which was optimal at 1-5 seconds (e.g., 1-2 seconds). Other parameters are described hereinabove. […] Roughness (RMS) and wettability measurements were performed as described hereinabove.

[3] = system: E. coli; experiment: Antimicrobial properties of fatty acid powders in liquid medium, drop-plate method; type: cell-based, Escherichia coli; settings: 50 milligram SFA powder per 1 mL suspension, 24 hours at 37° C.; control 1.2 ± 0.2 · 10^8
Experimental: (§1) Antimicrobial studies: The antimicrobial properties of fatty acid powders were evaluated by in liquid medium via the drop-plate method. One bacteria colony (E. coli or L. innocua) was incubated overnight in 4 mL Nutrient Broth (NB) liquid medium (Sigma Aldrich, Israel) at 37° C. under agitation (150 rpm) until the bacteria reached a stationary phase (about 10^9 CFU/mL). Then, the overnight bacteria culture was diluted in fresh NB medium (about 10^7 CFU/mL) and incubated for an additional 2 hours to achieve a logarithmic culture. Next, the logarithmic culture was diluted to 10^4 CFU mL^−1 in 1:100 NB medium.
(§2) 1 mL of the diluted bacterial suspension was incubated with 50 milligram of different SFA powders at 37° C. for 24 hours in 24-well-plates under agitation (100 rpm). The cultures were decimally diluted and 10 μL drops were transferred onto NB solid agar substrate. The colonies were counted after 24 hours incubation at 37° C.
(§3) To study the intrinsic bactericidal effect of the tested SFAs against both Gram-positive and Gram-negative bacteria, incubation of bacteria culture with powdered SFAs followed by colony counting was performed. Table 3 hereinbelow presents E. coli and L. innocua count in colony-forming unit (CFU) per milliliter, estimated by the drop-plate method following incubation for 24 hours at 37° C. with the SFA powders in respective liquid media.

[4] = system: L. innocua; experiment: as above; type: cell-based, Listeria innocua; settings: 24 hours at 37° C.; for L. innocua [CFU mL^−1]: 50 milligram SFA powder per 1 mL suspension, control 2.4 ± 0.2 · 10^5; for L. innocua growth inhibition: powdered SFA
Experimental: as §1, §2, §3

[5] = system: Botrytis cinerea; experiment: Anti-fungal effect of neat fatty acids on PDA agar plates; type: cell-based; settings: neat fatty acid at centre of PDA plate, 24° C., 72 hours
Experimental: Anti-fungal studies: Botrytis cinerea (B. cinerea) isolate B05.10 was collected from Vitis vinifera. Botrytis cinerea spores were plated on potato dextrose agar (PDA) plates, each fatty acid powder was placed in the center of the plate, and the plates were then incubated at 24° C. for 72 hours. In the case of caprylic acid, a hole was punched in the middle of the agar plate in order to contain its liquid form.

[6] = Contact angle hysteresis (CAH) of spray-coated fatty acid coatings; type: physicochemical; settings: spray coating
Experimental: Wetting properties of the coatings were characterized by CA and CAH measurements, which were performed using an Attension Theta Lite tensiometer and high-purity water or ethylene glycol (99.5%, Merck, Germany) droplets of 7 μL volume.

[7] = system: Botrytis cinerea; experiment: Ex-planta rose petals, damaged area after Botrytis cinerea spore droplets; settings: thick, medium and thin sprayed layers; 10^4 spores per milliliter, 30 μL droplets, 72 hours, room temperature
Experimental: Botrytis cinerea culture was diluted in potato dextrose broth (PDB) medium to a final concentration of 10^4 spores per milliliter. 30 μL droplets were put on the coated leaves and uncoated control leaves and left in room temperature protected from light for 72 hours. A damaged area can be observed below and surrounding each droplet. The damaged area was then measured using a caliper along its long and the short directions.

[8] = Diethyl ether (Tb 36.4), 50 mg/ml
[9] = Diethyl ether (Tb 36.4), 50 mg/ml, listed as palmitic acid
[10] = Diethyl ether (Tb 36.4), 20 mg/ml

CCCCCCCCCCCCCCCCCCCC(=O)O [Arachidic acid]
Roughness [μm] (about 10% RSD) ([1]; Acetone, 2 mg/ml): 2.7 μm
Roughness [μm] (about 10% RSD) ([1]; Diethyl ether, 10 mg/ml): 4.3 μm
Roughness [μm] (about 10% RSD) ([1]; EtOH, 1 mg/ml): 0.9 μm
Contact angle [°] (about 5% RSD) ([2]; Acetone, 2 mg/ml): 134 °
Contact angle [°] (about 5% RSD) ([2]; Diethyl ether, 10 mg/ml): 152 °
Contact angle [°] (about 5% RSD) ([2]; EtOH, 1 mg/ml): 119 °
E. coli [CFU mL^−1] [3]: 9.6 ± 3.2 · 10^7 CFU mL^−1
L. innocua [CFU mL^−1] [4]: 0 CFU mL^−1
L. innocua growth inhibition [4]: completely inhibited

CCCCCCCCCCCCCCCCCCCCCC(=O)O [Behenic acid]
Roughness [μm] (about 10% RSD) ([1]; Diethyl ether, 2 mg/ml): 4.2 μm
Contact angle [°] (about 5% RSD) ([2]; Diethyl ether, 2 mg/ml): 156 °
anti-fungal effect against Botrytis cinerea growth [5]: do not present any anti-fungal effect

CCCCCCCCCCCC(=O)O [Lauric acid]
Roughness [μm] (about 10% RSD) ([1]; EtOH, 10 mg/ml): 5.2 μm
Contact angle [°] (about 5% RSD) ([2]; EtOH, 10 mg/ml): 113 °

CCCCCCCCCCCCCC(=O)O [Myristic acid]
Roughness [μm] (about 10% RSD) ([1]; Acetone, 10 mg/ml): 4.2 μm
Roughness [μm] (about 10% RSD) ([1]; Diethyl ether, 20 mg/ml): 5.6 μm
Roughness [μm] (about 10% RSD) ([1]; EtOH, 10 mg/ml): 4.7 μm
Contact angle [°] (about 5% RSD) ([2]; Acetone, 10 mg/ml): 120 °
Contact angle [°] (about 5% RSD) ([2]; Diethyl ether, 20 mg/ml): 132 °
Contact angle [°] (about 5% RSD) ([2]; EtOH, 10 mg/ml): 115 °

CCCCCCCCCCCCCCCC(=O)O [Palmitic acid]
Roughness [μm] (N = 3) [1, 8]: 4.4 ± 0.4 μm
Roughness [μm] (about 10% RSD) ([1]; Acetone, 15 mg/ml): 5.0 μm
Roughness [μm] (about 10% RSD) ([1]; Diethyl ether, 10 mg/ml): 3.2 μm
Roughness [μm] (about 10% RSD) ([1]; Diethyl ether, 20 mg/ml): 4.8 μm
Roughness [μm] (about 10% RSD) ([1]; EtOH, 10 mg/ml): 2.3 μm
Roughness [μm] (about 10% RSD) ([1]; MeOH, 10 mg/ml): 3.6 μm
Contact angle [°] (N = 3) [2, 8]: 156.6 ± 2.3 °
Contact angle [°] (N = 3) [2, 9]: 156.6 °
CA angle ([2]; spray-coated): above 150 °
Contact angle [°] (about 5% RSD) ([2]; Acetone, 15 mg/ml): 140 °
Contact angle [°] (about 5% RSD) ([2]; Diethyl ether, 10 mg/ml): 145 °
Contact angle [°] (about 5% RSD) ([2]; Diethyl ether, 20 mg/ml): 148 °
Contact angle [°] (about 5% RSD) ([2]; EtOH, 10 mg/ml): 111 °
Contact angle [°] (about 5% RSD) ([2]; MeOH, 10 mg/ml): 137 °
CA ([2]; thermally deposited on glass): below 140 °
CAH [°] (N = 3) [6, 8]: 11.1 ± 4.6 °
CAH [°] (N = 3) [6, 9]: 11.1 °
E. coli [CFU mL^−1] [3]: 1.4 ± 0.6 · 10^8 CFU mL^−1
L. innocua [CFU mL^−1] [4]: 1.7 ± 0.5 · 10^4 CFU mL^−1
L. innocua growth inhibition [4]: inhibited by an order of magnitude
protection of rose petals against damage by Botrytis cinerea [7]: most effectively inhibit damage propagation
anti-fungal effect against Botrytis cinerea growth [5]: do not present any anti-fungal effect

CCCCCCCCCCCCCCCCCC(=O)O [Stearic acid]
Roughness [μm] (N = 3) ([1]; Acetone (Tb 56.0), 10 mg/ml): 11.9 ± 3.7 μm
Roughness [μm] ([1]; Acetone (Tb 56.0), 20 mg/ml): 7.5 ± 0.9 μm
Roughness [μm] [1, 10]: 6.1 ± 1.0 μm
Roughness [μm] (N = 3) [1, 8]: 8.0 ± 0.6 μm
Roughness [μm] (N = 3) ([1]; EtOH (Tb 78.4), 10 mg/ml): 1.5 ± 0.06 μm
Roughness [μm] ([1]; EtOH (Tb 78.4), 20 mg/ml): 1.1 ± 0.1 μm
Roughness [μm] (about 10% RSD) ([1]; Acetone, 5 mg/ml): 1.3 μm
Roughness [μm] (about 10% RSD) ([1]; Acetone, 20 mg/ml): 7.5 μm
Roughness [μm] (about 10% RSD) ([1]; Diethyl ether, 15 mg/ml): 5.7 μm
Roughness [μm] (about 10% RSD) ([1]; Diethyl ether, 20 mg/ml): 6.1 μm
Roughness [μm] (about 10% RSD) ([1]; EtOH, 5 mg/ml): 0.7 μm
Roughness [μm] (about 10% RSD) ([1]; EtOH, 20 mg/ml): 1.1 μm
Roughness [μm] (about 10% RSD) ([1]; MeOH, 4 mg/ml): 3.5 μm
effect of adding a food coloring agent on water contact angle ([2]; 0.02 gram/ml in diethyl ether plus coloring agent, spray-coated on glass): no change in water contact angle
Contact angle [°] (N = 3) ([2]; Acetone (Tb 56.0), 10 mg/ml): 156.4 ± 1.5 °
Contact angle [°] ([2]; Acetone (Tb 56.0), 20 mg/ml): 156.5 ± 5.5 °
Contact angle [°] [2, 10]: 165.3 ± 1.1 °
Contact angle [°] (N = 3) [2, 8]: 165.7 ± 4.4 °
Contact angle [°] (N = 3) ([2]; EtOH (Tb 78.4), 10 mg/ml): 113.2 ± 4.6 °
Contact angle [°] ([2]; EtOH (Tb 78.4), 20 mg/ml): 118.3 ± 5.8 °
Contact angle [°] (about 5% RSD) ([2]; Acetone, 5 mg/ml): 145 °
Contact angle [°] (about 5% RSD) ([2]; Acetone, 20 mg/ml): 156 °
Contact angle [°] (about 5% RSD) ([2]; Diethyl ether, 15 mg/ml): 149 °
Contact angle [°] (about 5% RSD) ([2]; Diethyl ether, 20 mg/ml): 165 °
Contact angle [°] (about 5% RSD) ([2]; EtOH, 5 mg/ml): 110 °
Contact angle [°] (about 5% RSD) ([2]; EtOH, 20 mg/ml): 118 °
Contact angle [°] (about 5% RSD) ([2]; MeOH, 4 mg/ml): 136 °
CAH [°] (N = 3) ([6]; Acetone (Tb 56.0), 10 mg/ml): 2.3 ± 1.2 °
CAH [°] (N = 3) ([6]; Acetone (Tb 56.0), 20 mg/ml): 2.0 ± 1.7 °
CAH [°] (N = 3) [6, 10]: 2.2 ± 1.1 °
CAH [°] (N = 3) [6, 8]: 1.7 ± 1.4 °
CAH [°] (N = 3) ([6]; EtOH (Tb 78.4), 10 mg/ml): 27.5 ± 7.0 °
CAH [°] (N = 3) ([6]; EtOH (Tb 78.4), 20 mg/ml): 11 ± 1.2 °
E. coli [CFU mL^−1] [3]: 1.8 ± 0.05 · 10^8 CFU mL^−1
L. innocua [CFU mL^−1] [4]: 1.9 ± 0.5 · 10^4 CFU mL^−1
L. innocua growth inhibition [4]: inhibited by an order of magnitude

CCCCCCCC(=O)O [caprylic acid, Caprylic acid]
anti-fungal effect against Botrytis cinerea growth [5]: complete inhibition

C/C=C/C=C/C(=O)O [sorbic acid]
properties of sprayed coating as single component ([2]; preliminary tests, data not shown): hydrophilic coating which was not stable over time
anti-fungal effect against Botrytis cinerea growth [5]: significant growth inhibition
